From patent US20190160035A1, “METHOD OF TREATMENT” (QBIOTICS LIMITED, priority 2016, published 2019)
“Also recorded” adds a separate entry of the source.

Assays:
[1] = test system: MCT (cutaneous and subcutaneous); assay: Example 5: Compound 1 injection with oral prednisolone and antihistamine co-therapy, RECIST v.1.1 tumor response; format: in vivo, Canis lupus familiaris (dog)
From the text: This study investigates the efficacy and safety of Compound 1 injection for MCT treatment in the presence of corticosteroids administered under defined clinical situations.
Dogs were selected for the study if they met the criteria in Table 1 (Example 1) but where the dog has at least one MCT.
Wherever possible, the tumor and a 2 cm border surrounding the tumor was shaved prior to treatment. To deliver the drug, the needle of the dosing syringe was inserted into the tumor at the injection point and moved in a radial manner in 2- and 3-dimensions with drug delivered to the tumor mass. Study dogs were clinically examined at 2-4 and 24 hours, and 7 (+2), 14 (+2) and 28 (+2) days post-treatment (and unscheduled visits at attending veterinarian discretion).
Each supervising veterinarian was given latitude to provide and record prophylactic and supportive medications as deemed appropriate for managing potential paraneoplastic events and tumor site necrosis following Compound 1 treatment. However, prednisolone and antihistamines were used as co-therapy. Prednisolone therapy commenced on Day −1 and continued for a further 7 days. H1 and H2 antihistamine therapy (chlorpheniramine and famotidine respectively) commenced on the morning of drug treatment and continued for a further 6 days (see Table 23).
RECIST v.1.1 results are summarised in Table 28 which also includes a measure of neoadjuvant prednisolone action (potential tumor shrinkage) between screening and immediate pre-treatment tumor evaluation. Sixteen (16) dogs and eighteen (18) tumors were treated. Raw data for RECIST assessment was collected on Day 0 (immediately pre-treatment) and on Day 28 for fifteen (15) cases. […] With the remaining three (3) cases (C05-T-18, C05-V-01, and C05-V-02), the dogs were not available on Day 28 for RECIST assessment. For dog C05-T-18, the injection site was measured as CR on Days 21 and 37. […] For dog C05-V-01, the injection site was measured as PR on Days 21 and 37 (55% and 60% RECIST reduction respectively). […] For dog […], due to the progressive nature of disease, the animal was removed from study on Day 21.

[2] = Example 7: injection site abnormalities after IVP dosing (VCOG CTCAE); format: in vivo, dogs; parameters: key to VCOG CTCAE Magnitude of injection site abnormality: Grade 1: Mild; asymptomatic or mild symptoms; clinical signs or diagnostic observations only; intervention not indicated; key to VCOG CTCAE Relationship to IVP of injection site abnormality: Unrelated: Clearly not related to IVP; Unlikely: Doubtfully related to IVP; Possible: May be related to IVP; Probably: Likely related to IVP; Definite: Clearly related to IVP
From the text: Injection site abnormalities were reported within the immediate post-injection period for six cases. […] An analgesic was prescribed to start on day 0 for one of the six cases (SI-11). […] The VCOG CTCAE classifications of these injection site abnormalities for magnitude and relationship to IVP as determined by the investigator are listed in Table 35.

[3] = test system: cutaneous Mast Cell Tumor (MCT); assay: Example 2: dose de-escalation study (1.0, 0.5, 0.2 mg/mL; 0.5 mL per cm^3 tumor), RECIST v.1.1 tumor response; format: in vivo, dogs; settings: for RECIST classification: Day 21, one value per dog
Method: A multi-site, unmasked, uncontrolled, non-randomized dosage characterization study in dogs was performed under field conditions using dose de-escalation.
Dogs were enrolled in the study as they presented to participating veterinary practices meeting the necessary eligibility criteria. As the study design was a dose de-escalation study, dogs were allocated to the highest dose initially (1.0 mg Compound 1 per mL). Each dose comprised a total cohort of 10 dogs participating across all clinics. Once the cohort of 10 dogs was treated at the highest dose, subsequent dogs were assigned to the 2nd cohort (0.5 mg Compound 1 per mL) and dosing continued through de-escalation until completion of 7 evaluable enrolments in the 3rd cohort (0.2 mg Compound 1 per mL).
Each Compound 1 preparation (1.0, 0.5, and 0.2 mg/mL) was pre-prepared in a 30% propylene glycol, 30 mM Acetate buffer pH 4.0 solution.
Compound 1 was administered to each dog at 0.5 mL per cm^3 of tumor volume as determined on the day of dosing. Digital calipers were used to measure tumor axes.
Wherever possible, the tumor and a 2 cm border surrounding the tumor was shaved prior to treatment. To deliver the drug formulation, the needle of the dosing syringe was inserted into the tumor at the injection point and moved in a radial manner in 2- and 3-dimensions with approximately 0.1 mL of formulation delivered to each 0.2 cm^3 of tumor mass. Study dogs were clinically examined at approximately 24 and 48 hours, 7, 14 and 21 days post-treatment.
Prophylactic and supportive medications considered for use in this study to prevent paraneoplastic MCT-induced adverse events such as Darier's sign and gastric upset included cetrizine, chlorpheniramine, omeprazole, acetylpromazine, methadone and meloxicam. Some supportive therapies were given up to 5 days post treatment (see Table 14). Additional approved supportive therapies (if required) included fentanyl (patch) or tramadol analgesia, or antibiotic (amoxicillin/clavulanic acid).
Determination of efficacy was based on objective tumor measurements made according to the RECIST v.1.1 guidelines (Eisenhauer et al., 2009) using unidirectional tumor measurements.
Pairwise comparison of categorical responses to treatment between treatment groups at each time point post-treatment were compared using Fisher's Exact Test. Using the RECIST classification (Eisenhauer et al., 2009), tumor data was analysed to determine the effectiveness of, and differences between, treatments. Generalised linear modeling was used to examine the combined effects of treatment dose, time post-treatment and other potentially explanatory variables. Generalised estimating equations with appropriate error structure (and controlled for repeated measurements of individuals) were used to examine categorical response to treatment and changes in tumor volume measurement. Tumor volume analysis was also controlled for pre-treatment tumor volume.
MCT measurements were recorded using digital calipers. Measurements were taken pre-treatment and at 7(±1), 14(±1) and 21(±2) days post treatment. The length (cm) was designated the longest measurable axis; the width (cm) was the tumor at the widest point perpendicular to the length; gentle manipulation of the MCT to measure the depth (cm) using the calipers was considered acceptable. Determination of efficacy was based on objective tumor measurements made according to the RECIST v.1.1 guideline using the longest unidirectional measurement (Eisenhauer et al. 2009) recorded at each timepoint. RECIST criteria were only applied to target lesions as Compound 1 is not intended as a systemic therapy. […] RECIST v.1.1 results are summarized below in Table 18.

[4] = immediate post-injection period

**Q.** Which “Share of cases with a CR RECIST result” value ([1]; 14 out of 18 cases) does the source give for C/C=C(\C)C(=O)O[C@@H]1[C@@H](C)[C@@]2(O)[C@H]([C@@H]3C(C)(C)[C@]13OC(=O)[C@@H](C)CC)[C@@H]1O[C@]1(CO)[C@@H](O)[C@]1(O)C(=O)C(C)=C[C@H]12 [Compound 1, 12-tigloyl-13-(2-methylbutanoyl)-6,7-epoxy-4,5,9,12,13,20-hexahydroxy-1-tigliaen-3-one] here?
**A.** 78%

**Q.** What about the “Number of cases with progressive disease (PD)” value ([1]; Day 28, 15 cases assessed) of the same compound?
**A.** 1

**Q.** What about the “Number of cases with complete response (CR)” value ([1]; Day 28, 15 cases assessed, prednisolone, chlorpheniramine, famotidine co-therapy) of the same compound?
**A.** 13

**Q.** And the “Tumor course beyond Day 7 post treatment” value ([1]; dog C05-T-09, Patnaik Grade III cutaneous MCT)?
**A.** continued to grow

**Q.** And the RECIST reduction ([1]; dog C05-V-01, Day 21)?
**A.** 55%

**Q.** And the RECIST reduction ([1]; dog C05-V-01, Day 37)?
**A.** 60%

**Q.** And the “RECIST reduction of residual mass” value ([1]; dog C05-V-01, Day 57)?
**A.** 70%

**Q.** And the “RECIST result of injection site” value ([1]; dog C05-V-01, Days 21 and 37)?
**A.** PR (partial response (PR, at least 30% decrease in the longest diameter of target lesion))

**Q.** And the “Residual tumor after initial tumor reduction” value ([1]; dog C05-V-02, vulvar Patnaik Grade III MCT)?
**A.** residual tumor mass was evident by Day 21

**Q.** And the “Number of cases with partial response (PR)” value ([1]; of 18 cases enrolled)?
**A.** 1

**Q.** What about the “Number of cases with progressive disease” value ([1]; of 18 cases enrolled) of the same compound?
**A.** 2

**Q.** And the “Number of cases with a CR RECIST result” value ([1]; out of eighteen (18) treated cases)?
**A.** 14

**Q.** What about the “Number of cases with injection site abnormalities in the immediate post-injection period” value ([2]; 11 cases) of the same compound?
**A.** six

**Q.** What about the “Number of cases that exhibited restlessness” value [2, 4] of the same compound?
**A.** three

**Q.** And the “Number of cases that experienced pain” value [2, 4]?
**A.** Three

**Q.** What about the “Day by which injection site abnormalities resolved” value ([2]; pain and restlessness) of the same compound?
**A.** ≤ 1 days

**Q.** And the “VCOG CTCAE Relationship to IVP of injection site abnormality” value ([2]; per case, as determined by the investigator)?
**A.** Definite; also recorded: Possible; also recorded: Probable

**Q.** And the “VCOG CTCAE Magnitude of injection site abnormality” value ([2]; per case, immediate post-injection period)?
**A.** Grade 1^f

**Q.** What about the “Number of dogs with complete response (CR)” value (“Number of dogs … (CR)” below) ([3]; cohort 1, 1.0 mg/mL, 10 dogs) of the same compound?
**A.** 9

**Q.** And the RECIST classification ([3]; cohort 2, 0.5 mg Compound 1/mL)?
**A.** PR (partial response (PR, at least 30% decrease in the longest diameter of target lesion)); also recorded: PD (progressive disease (PD, greater than 20% increase in the target lesion))

**Q.** What about the “Number of dogs … (CR)” value ([3]; cohort 2, 0.5 mg/mL, 10 dogs) of the same compound?
**A.** 5

**Q.** What about the “Number of dogs with partial response (PR)” value ([3]; cohort 2, 0.5 mg/mL, 10 dogs) of the same compound?
**A.** 1

**Q.** And the “Number of dogs with progressive disease (PD)” value ([3]; cohort 2, 0.5 mg/mL, 10 dogs)?
**A.** 1

**Q.** And the RECIST classification ([3]; cohort 3, 0.2 mg Compound 1/mL)?
**A.** PR (partial response (PR, at least 30% decrease in the longest diameter of target lesion))

**Q.** What about the “Number of dogs showing efficacy (greater than a 70% reduction in tumor volume at 21 days)” value ([3]; cohort 3, 0.2 mg/mL) of the same compound?
**A.** < 3

**Q.** And the “Number of dogs … (CR)” value ([3]; cohort 3, 0.2 mg/mL, 7 dogs)?
**A.** 2

**Q.** And the “Number of dogs with partial response (PR)” value ([3]; cohort 3, 0.2 mg/mL, 7 dogs)?
**A.** 1

**Q.** And the “Mitotic nuclei in post-surgical biopsy material of residual tumor” value ([3]; dog GCV-107, cohort 1)?
**A.** no mitotic nuclei identified

**Q.** What about the “Total tumor volume reduction (modified ellipsoidal calculation)” value ([3]; dog GCV-107, cohort 1, Day 21) of the same compound?
**A.** 36%

**Q.** And the “Unidirectional tumor measurement (length) decrease” value ([3]; dog GCV-107, cohort 1, by Day 21)?
**A.** 23%
